# Read-outs that look alike come from different tables or passages of the source.
# Legend:
# [1] = tested on: HCT116DoxR cells; assay: Cellular senescence (β-galactosidase, flow cytometry); settings: 48 h; complexes at IC50, cisplatin 5 μM, Dox 6 μM
# Description: Given the ability of the Cu(II) complexes to interfere with the progression of the cell cycle, the senescence of HCT116DoxR cells was analyzed after 48 h of exposure to their IC50 concentrations. […] To study the senescence-inducing capacity of the complexes, the activity of β-galactosidase, whose increased expression is associated with senescence, was quantified by flow cytometry (Figure 16).[73]
# (§1) HCT116DoxR cell line was seeded in 6-well plates in a density of 1×10^5 cells/mL and incubated for
# (§2) 24 h. Afterwards, the culture medium was replaced by medium with IC50 concentrations of different
# (TBHP) were used as controls. After an incubation period of 48 h, cells were washed with PBS 1x, detached with TrypLETM Express and washed again with PBS 1x.
# [2] = tested on: HCT116DoxR (Dox-resistant colorectal carcinoma cell line); settings: cited from earlier work
# [3] = tested on: HCT116 (colorectal carcinoma cell line); assay: MTS cell viability assay, 2D culture, HCT116; format: cell-based, human
# Description: (§3) The in vitro cytotoxic potential of Cu(II) complexes in tumor and healthy cells was assessed using the MTS assay, a colorimetric method that allows the quantification of viable cells in culture.[46]
# Cell culture and maintenance
# (§4) The cancer cell lines HCT116 (colorectal carcinoma) and A2780 (ovarian carcinoma) were obtained
# (§5) from the American Type Culture Collection (ATCC®, Manassas, VA, USA), as well as the normal
# human primary dermal fibroblasts.
# (§6) Apart from the A2780 cell line, which was cultured in Roswell Park Memorial Institute (RPMI)
# (§7) medium, all cells were cultured in Dulbecco’s modified Eagle medium (DMEM). Both media were
# (§8) supplemented with 10% (v/v) fetal bovine serum (FBS) and 1% (v/v) of a Pen/Strep
# (§9) (Penicillin/Streptomycin) solution. To maintain the resistant phenotype of the HCT116DoxR cell line,
# (§10) the medium was additionally supplemented with 3.6 μM Dox4. All media and supplements were
# (§11) purchased from Thermo Fischer Scientific (Waltham, MA, USA).
# (§12) Cells were maintained in 25 cm2 T-flasks (T25) in a humidified atmosphere at 37 °C and 5% (v/v) CO
# (§13) (SANYO CO2 Incubator, Electric Biomedical Co., Osaka, Japan).
# (§14) The effect of Cu(II) complexes on cell viability was studied in HCT116, HCT116DoxR, and A2780
# (§15) cancer cell lines and in normal human primary fibroblasts. Cells were seeded in a density of 0.75×105
# (§16) cells/mL into 96-well plates and incubated in a humidified atmosphere at 37 °C and 5% (v/v) CO2 for
# (§17) 24 h. After incubation, complexes were weighed, immediately solubilized in 100% (v/v) DMSO and
# (§18) diluted for the final concentration with cell culture medium. The medium in each well was replaced by
# (§19) a solution of fresh medium containing each Cu(II) complex (concentrations ranging from 0.01 μM to
# (§20) as negative and positive controls, respectively.
# (§21) Following a second incubation period of 48 h in the same conditions, the supernatant of each well was
# (§22) replaced by a solution containing MTS reagent (3-(4,5-dimethylthiazol-2-yl)-5-(3-
# (§23) carboxymethoxyphenyl)-2-(4-sulfophenyl)-2H-tetrazolium) provided by the CellTiter 96® AQueous
# (§24) Non-Radioactive Cell Proliferation Assay Kit (Promega, Madison, WI, EUA) for a 30 minutes
# (§25) incubation. The percentage of viable cells was indirectly determined by the spectrophotometric
# (§26) quantification at 490 nm in a microplate reader, Tecan Infinite M200 (Tecan, Männedorf, Switzerland)
# (§27) of formazan production, resultant from the reduction of the MTS reagent by mitochondrial
# (§28) dehydrogenases. Since these enzymes are only active in viable cells, the absorbance value measured is
# (§29) directly proportional to the percentage of viable cells in culture5.
# (§30) By analysing the cell viability as a function of log10(concentration) using Prism 8 (GraphPad
# (§31) in cell viability) of each complex in the respective cell line at 48 h. The selective index (SI) for each
# (§32) complex was also determined by dividing the IC50 of human fibroblasts by the respective IC50 in each
# (§33) cancer cell line (allowing us to understand how much active a complex is in tumor versus normal cell).
# [4] = tested on: HCT116DoxR cells; assay: Cell cycle progression (PI, flow cytometry)
# Description: Therefore, we have assessed the cytostatic potential of complexes 2, 3, 5, and 7, and their ability to interfere with the progression of the cell cycle using the fluorescent marker PI. Since this marker can intercalate with DNA, the measurement of the fluorescence emitted by flow cytometry makes it possible to assess the DNA content at each stage of the cell cycle (G0/G1, S, and G2/M).[67] To ensure that all the cells were in the same phase before their exposure to the complexes, a double block was carried out with thymidine, a DNA synthesis inhibitor.[67]
# as §1, §2
# HCT116DoxR cell line was seeded in 6-well plates in a density of 1×10^5 cells/mL, incubated for 8 h in
# a humidified atmosphere at 37 °C and 5% (v/v) CO2, and later synchronized in early S-phase with a 2
# mM thymidine solution (Merck, Germany) for a 16 h period. Later, medium with thymidine was
# replaced by fresh media and, after 8 h a second block with thymidine was performed in the same
# concentrations of Cu(II) complexes. 0.1% (v/v) DMSO was used as the vehicle control while 5 μM
# After treatment, cells were incubated for 9, 12,
# [5] = tested on: HCT116DoxR cells; assay: Annexin V-FITC/PI apoptosis assay by flow cytometry; settings: 48 h, complexes at IC50, Dox 6 μM, cisplatin 5 μM
# Description: To evaluate the cell death mechanism involved in the cytotoxic effect of the selected complexes, a double-staining with Annexin V-FITC and PI was performed. […] The use of Annexin V conjugated with the fluorophore FITC allows the quantification of this interaction and subsequent identification of cells in apoptosis by flow cytometry. Furthermore, PI is a fluorophore that can intercalate with DNA and that can only enter the cell when the membrane is either compromised or ruptured, making it possible to identify cells undergoing late apoptosis and necrosis. Therefore, the double staining makes it possible to distinguish between viable cells (FITC^–; IP^–), those undergoing initial apoptosis (FITC^+; IP^–), those undergoing late apoptosis (FITC^+; IP^+), and those undergoing necrosis (FITC^–; IP^+).[55],[58]
# Evaluation of apoptosis induction in HCT116DoxR cell line by flow cytometry The induction of apoptosis in HCT116DoxR cell line was evaluated by flow cytometry, using the
# Annexin V-FITC Apoptosis Detection Kit (Thermo Fisher Scientific, Waltham, MA, USA). Cells
# were seeded in 6-well plates at a cell density of 1×10^5 cells/mL and incubated for 24 h. Afterwards,
# culture medium was replaced by medium with different Cu(II) complexes at their IC50 concentrations.
# After 48 h of incubation, cells were washed with PBS 1x, detached from each well with TrypLETM
# Express and washed again with PBS 1x. Cells were then resuspended in 1x annexin-binding buffer and
# incubated at rt for 15 min with Annexin V-FITC and 100 μg/mL PI.
# All samples were analysed by an Attune® Acoustic Focusing Flow Cytometer (Thermo Fischer
# Scientific, Waltham, MA, USA) and the results were processed with Attune® Cytometric software
# [6] = tested on: A2780 (ovarian carcinoma cell line); assay: MTS cell viability assay, 2D culture, A2780; format: cell-based, human
# Description: as §3
# Cell culture and maintenance
# as §4, §5
# human primary dermal fibroblasts.
# as §6, §7, §8, §9, §10, §11, §12, §13, §14, §15, §16, §17, §18, §19, §20, §21, §22, §23, §24, §25, §26, §27, §28, §29, §30, §31, §32, §33
# [7] = tested on: normal human primary dermal fibroblasts; parameters: method as in PMID 29688241; settings: 48 h; previously obtained; cited from earlier work
# [8] = tested on: HCT116DoxR (Dox-resistant colorectal carcinoma cell line); assay: MTS cell viability assay, 2D culture, HCT116DoxR; settings: read-out: IC50 (μM) HCT116DoxR, 48 h of exposure
# Description: as §3
# In this regard, cell viability was performed for each of the ligands on HCT116DoxR and fibroblasts.
# Cell culture and maintenance
# as §4, §5
# human primary dermal fibroblasts.
# as §6, §7, §8, §9, §10, §11, §12, §13, §14, §15, §16, §17, §18, §19, §20, §21, §22, §23, §24, §25, §26, §27, §28, §29
# [9] = tested on: caspase-8; assay: Caspase-8 activity (IETD-pNA cleavage); format: cell-based, human; settings: HCT116DoxR, 48 h; complexes at IC50, cisplatin 5 μM
# Description: In this assay, the chromogenic substrate IETD-pNA, resulting from the conjugation between the peptide IETD (Ile-Glu-Thr-Asp) and the chromophore pNA (p-nitroanilide), is cleaved by caspase-8, releasing the chromophore, which is detected by measuring absorbance at 400 nm.[48] […]
# treated with ECLTM Prime Western Blotting Detection Reagents (Cytiva, United Kingdom) for 5 min and exposed to a film in a dark room. Membranes were later incubated (with agitation) twice with Stripping buffer (0.1M glycine, 20 mM magnesium acetate, 50 mM KCl, pH 2.0) during 10 and 20 min, respectively, and subsequently incubated with anti-β-actin (1:5000; Sigma, St. Louis, USA) as a control to normalize the results. Proteins were quantified by densitometry using Image J software.
# The Caspase-8 activity in HCT116DoxR cells exposed to Cu(II) complexes was evaluated using the Caspase-8 Assay kit (ab39700) (Abcam, Cambridge, United Kingdom). […]
# The plate was then incubated for 2 h at 37°C, after which, absorbance was read at 400 nm on a Tecan Infinite M200 microplate reader (Männedorf, Switzerland).
# ΔΨm was evaluated in HCT116DoxR cell line by using the JC-1 Mitochondrial Membrane Potential Assay Kit (Abnova Corporation, Walnut, CA, USA). […]
# Autophagy induction in HCT116DoxR cell line was evaluated using the Autophagy Assay Kit (ab139484) (Abcam, Cambridge, United Kingdom) according to the manufacturers’ instructions. […]
Compound,induction of cellular senescence compared to DMSO control [1],IC50 [2] [µM],"IC50 ([3]; Homo sapiens, HCT-116, 48 h of exposure) [µM]","cell cycle arrest in the G2/M phase ([4]; Dox 6 μM, 9–24 h)",cells (%) early apoptosis [5] [%],cells (%) late apoptosis [5] [%],cells (%) necrosis [5] [%],cells (%) viable [5] [%],percentage of apoptosis (early + late) [5] [%],"viability at 6 µM ([5]; Homo sapiens, read-out: cells (%) viable, 48 h) [%]","IC50 ([6]; Homo sapiens, A2780, 48 h of exposure) [µM]",IC50 [7] [µM],IC50 [8] [µM],increase in caspase-8 activity compared to vehicle control (DMSO) [9],IC50 ([3]; 48 h of exposure) [µM],"cell cycle progression after 24 h ([4]; 24 h, complexes at IC50, cisplatin 5 μM)",IC50 ([6]; 48 h of exposure) [µM]
"COc1cccc2c1C(=O)c1c(O)c3c(c(O)c1C2=O)C[C@@](O)(C(=O)CO)C[C@@H]3O[C@H]1C[C@H](N)[C@H](O)[C@H](C)O1 [Dox, doxorubicin, reference compound]",did not induce an increase in cellular senescence,> 6,0.5 ± 0.1,not verified,16.6 ± 5.5,13.9 ± 1.9,9.8 ± 4.0,59.8 ± 3.8,~31,~60,0.1 ± 0.04,,,,,,
COc1ccc(-c2cc(-c3ccccn3)nc(-c3ccccn3)c2)c2ccccc12 [L3],,,,,,,,,,,,0.95 ± 0.08,0.2 ± 0.02,,,,
"N.N.[Cl][Pt][Cl] [cisplatin, reference compound]",induce cellular senescence,,,,47.5 ± 7.2,19.8 ± 5.9,0.1 ± 0.1,,65 to 70,,,,,2- to 3 fold,15.6 ± 5.3,delay the cycle in the G2/M phase,1.9 ± 0.2

# From paper PMC11017252, “Copper(II) Complexes with 2,2′:6′,2″-Terpyridine Derivatives Displaying Dimeric Dichloro−μ–Bridged Crystal Structure: Biological Activities from 2D and 3D Tumor Spheroids to In Vivo Models” (Journal of Medicinal Chemistry, 2024)
